# Source: paper PMC6513986, “Molecular basis for heat desensitization of TRPV1 ion channels” (Nature Communications, 2019)
# Ends that are not written are not given here.
# Columns and labels:
# [1] = biological target: T1, mV1 (Mus musculus, UniProt Q704Y3); assay: Inhibition of Dh of mV1 by C-terminal peptides or co-expressed C terminus, whole-cell; format: cell-based; parameters: Tau values: unit not given here; settings: for Id/Imax / Tau values: Supplementary figure 1e
# T1 construct: expressed in transfected cells; host or cells: HEK293T
# Source text: To generate the mC plasmid, the pEGFP-N1 vector enzyme cutting sites by HindIII and EcoRI were made by QuickCut Hind III and QuickCut EcoR I. The primer pair (5′- […]-3′ and 5′- […]-3′) for mouse TRPV1 was generated. pEGFP-N1 enzyme digestion vector and mouse TRPV1 PCR fragment were used for homologous recombination.
# The pC plasmid was generated by the primer pair (5′-[…]-3′ and 5′-[…]-3′) and the homologous recombination between the pEGFP-N1 enzyme digestion vector and platypus TRPV1 PCR fragment were used.
# The C-terminal peptides were synthesized[26] as the following sequences:
# Random peptide: […]
# (§1) All recordings were performed at room temperature.
# (§2) Temperature control was achieved by perfusion of preheated or precooled solutions. Solutions were heated with an SHM-828 eight-line heater controlled by a CL-100 temperature controller (Harvard Apparatus). A custom-made manifold was attached to the output ports of the heater to deliver solutions to the recording chamber and provide heat insulation. Solutions were cooled by embedding the solution reservoirs in ice water and then perfused through a separate line. The patch pipette was placed about 1 mm from the solution output ports. A TA-29 miniature bead thermistor (Harvard Apparatus) was placed right next to the pipette, to ensure accurate monitoring of local temperature. The thermistor’s temperature readout was fed into an analog input of the patch amplifier and recorded simultaneously with current. With this method, we achieved rapid and reliable temperature changes.
# [2] = biological target: T2, N-terminal region of mV1 (mN region, 1M-433R) (Mus musculus, UniProt Q704Y3); assay: SPR, N-terminal region of mV1 immobilized; format: binding; settings: 47.6 to 95.2 μM, 15 °C
# T2 construct: N-terminal region of mV1 (mN region, 1M-433R)
# Method: Note that the desensitization of mV1 occurs before cooling starts. Amplitude ratio (n = 7, two-sided t-test: *p < 0.01) between desensitized currents (Id) and maximum currents (Imax) induced by heat at 45 °C (right panel). c Superimposed representative temperature–response relationships of heat-evoked currents in HEK293T cells transiently transfected with pV1 and mV1. d Chimeric channels were generated between mV1 (gray) and pV1 (yellow) on the basis of the location of transmembrane domains. […] Channel plasmid was co-expressed with C-terminal region of pV1 (pC, 701N-851E) or mV1 (mC, 688N-839K). g Example current induced by a temperature ramp recorded from whole-cell patches with 1 mM mV1 C-terminal peptide (mC peptide) or random peptide in the pipette solution. h The mC peptide was perfused over an SPR sensor coated with the N-terminal region of mV1 (mN region, 1M-433R) at 15 or 35 °C (left and middle panels). The mC peptide in 95.2 μM was perfused over an SPR sensor coated with mN region at 15, 30, 33, and 35 °C (right panel). i Significant concentration and temperaturedependence of the interaction between N and C termini (n = 6, two-sided t-test: *p < 0.01). All statistical data are given as mean ± SEM. Source data are provided as a Source data file […]
# [3] = test system: TRPV1; settings: cited from earlier work
# Source text: To further corroborate our findings in FRET experiments of heat-desensitized channels, we took an alternative experimental strategy where we measured the changes in FRET induced by centipede toxin RhTx. […] Thus, we believe that the prolonged application of RhTx mimicked the effect ... || Based on the site-specific structural dynamics information, we computationally modeled the three-dimensional structure of mV1 in the Dh state. The blue shift in ANAP emission indicated a transition into a more hydrophobic environment at the 630 site, which provided an experimentally derived constraint for structural modeling using a recently published approach. As the heat-activated state of TRPV1 channels has not been resolved, we employed the double-knot toxin-bound state determined by cryo-EM (PDB ID: 3J5Q)[20] as the open state model, because a previous study had shown that Redhead tox ... || To model the heat-induced desensitized state of TRPV1, membrane-symmetry-loop modeling was performed using the Rosetta molecular modeling suite[41] version 2015.25. […] The selectivity filter, the pre S6 linker, and the S1–S2 linker were modeled de novo with the kinematic (KIC) loop modeling protocol[42],[43]. Ten th ... || (+ 1 further places)
# [4] = biological target: T3, N-terminal region of mV1 (mN region, 1M-433R) (mouse, UniProt Q704Y3 1-433); assay: SPR; mN region (1M-433R) immobilised on the sensor chip, mC peptide (30 aa) perfused at 47.6 and 95.2 uM; 15 °C ('low temperature'); settings: both partners purified
# T3 construct: mouse TRPV1 (mV1), N-terminal region, residues 1M-433R; In the functional rows the N terminus stood within the whole mV1 channel in HEK293T cells; also called N-terminal peptides; N terminus of mV1
# [5] = biological target: T3, N-terminal region of mV1 (mN region, …); assay: SPR; mN region (1M-433R) immobilised on the sensor chip, mC peptide (30 aa) perfused at 47.6 and 95.2 uM; 35 °C ('high temperature'); settings: both partners purified
# [6] = test system: mV1, pV1 and mutants; assay: Heat-induced desensitization (Dh): Id/Imax and tau, patch clamp; format: cell-based, mouse; platypus; settings: Figure 2g
# Method: as §1, §2
# [7] = Id/Imax_Average of 6 replicates, SD and SEM in columns of their own
# [8] = Tau values_Average of 6 replicates, SD and SEM in columns of their own
molecule,measurement,setting,value
"GSLKPEDAEVFKDSMAPGEK [Pep_20, C-terminal peptide]",Id/Imax,[1]; [7],0.596
same,Tau values,[1]; [8],29.8
same,Id/Imax,[1]; replicate 1,0.486
same,Tau values,[1]; replicate 1,23.5
same,Id/Imax,[1]; replicate 2,0.667
same,Tau values,[1]; replicate 2,38.3
same,Id/Imax,[1]; replicate 3,0.715
same,Tau values,[1]; replicate 3,20.7
same,Id/Imax,[1]; replicate 4,0.612
same,Tau values,[1]; replicate 4,24.4
same,Id/Imax,[1]; replicate 5,0.567
same,Tau values,[1]; replicate 5,39.6
same,Id/Imax,[1]; replicate 6,0.529
same,Tau values,[1]; replicate 6,32.3
"LKHYTGSLKPEDAEVFKDSMAPGEK [Pep_25, C-terminal peptide]",Id/Imax,[1]; [7],0.403
same,Tau values,[1]; [8],59.5
same,Id/Imax,[1]; replicate 1,0.318
same,Tau values,[1]; replicate 1,43.8
same,Id/Imax,[1]; replicate 2,0.509
same,Tau values,[1]; replicate 2,73
same,Id/Imax,[1]; replicate 3,0.427
same,Tau values,[1]; replicate 3,60.4
same,Id/Imax,[1]; replicate 4,0.384
same,Tau values,[1]; replicate 4,48.3
same,Id/Imax,[1]; replicate 5,0.367
same,Tau values,[1]; replicate 5,52
same,Id/Imax,[1]; replicate 6,0.413
same,Tau values,[1]; replicate 6,79.5
QVEEPTYHKLPKLSGVEADEMSDKFKEGPM [Random peptide],inhibition of Dh of mV1,"[1]; 1 mM peptide in pipette solution, whole-cell",failed to inhibit Dh
PEEVQLKHYTGSLKPEDAEVFKDSMAPGEK [mC peptide],increase in SPR response,[2],162%
C=C(C)[C@]12C[C@@H](C)[C@@]34O[C@](Cc5ccccc5)(O[C@@H]1[C@@H]3C=C(COC(=O)Cc1ccc(O)c(OC)c1)C[C@]1(O)C(=O)C(C)=C[C@@H]41)O2 [RTX],activation through heat activation pathway,[3],activated the channel through heat activation pathway
"C terminus of mV1: C-terminal region of mV1 (mC, 688N-839K), co-expressed plasmid (protein, left off: eGFP (from the vector pEGFP-N1), end not stated, state not stated, C-terminal region of mV1 (mC, 688N-839K), co-expressed plasmid) NKIAQESKNIWKLQRAITILDTEKSFLKCMRKAFRSGKLLQVGFTPDGKDDFRWCFRVDEVNWTTWNTNVGIINEDPGNCEGVKRTLSFSLRSGRVSGRNWKNFALVPLLRDASTRDRHSTQPEEVQLKHYTGSLKPEDAEVFKDSMAPGEK",inhibition of Dh of mV1,[1]; co-expression with C-terminal region,largely inhibited
PEEVQLKHYTGSLKPEDAEVFKDSMAPGEK (last 30 residues of mouse TRPV1 (mV1); The text ties the SPR and the pipette experiment to 'a 30-amino-acid' C-terminal peptide; Pep_30 is the only printed peptide of that length from mV1; also called mC peptide; C-terminal peptides (a 30-amino-acid molecule); source: synthetic peptide) [mV1 C-terminal peptide (Pep_30)],Kd,[4],140 nM
same,Kd,[5],3 nM
"DkTx: peptide toxin, double-knot toxin (peptide, UniProt P0CH43 1-79, looked up) Tau-theraphotoxin-Hs1a: DCAKEGEVCSWGKKCCDLDNFYCPMEFIPHCKKYKPYVPVTTNCAKEGEVCGWGSKCCHGLDCPLAFIPYCEKYRGRND",activation through heat activation pathway,[3],activated the channel through heat activation pathway
same,mimicry of heat activation,[3],mimic heat activation of TRPV1
"mV1 (protein, UniProt Q704Y3 1-839, looked up) Transient receptor potential …: MEKWASLDSDESEPPAQENSCPDPPDRDPNSKPPPAKPHIFATRSRTRLFGKGDSEEASPMDCPYEEGGLASCPIITVSSVVTLQRSVDGPTCLRQTSQDSVSTGVETPPRLYDRRSIFDAVAQSNCQELESLLSFLQKSKKRLTDSEFKDPETGKTCLLKAMLNLHNGQNDTIALLLDIARKTDSLKQFVNASYTDSYYKGQTALHIAIERRNMALVTLLVENGADVQAAANGDFFKKTKGRPGFYFGELPLSLAACTNQLAIVKFLLQNSWQPADISARDSVGNTVLHALVEVADNTADNTKFVTNMYNEILILGAKLHPTLKLEELTNKKGLTPLALAASSGKIGVLAYILQREIHEPECRHLSRKFTEWAYGPVHSSLYDLSCIDTCEKNSVLEVIAYSSSETPNRHDMLLVEPLNRLLQDKWDRFVKRIFYFNFFVYCLYMIIFTTAAYYRPVEGLPPYKLNNTVGDYFRVTGEILSVSGGVYFFFRGIQYFLQRRPSLKSLFVDSYSEILFFVQSLFMLVSVVLYFSHRKEYVASMVFSLAMGWTNMLYYTRGFQQMGIYAVMIEKMILRDLCRFMFVYLVFLFGFSTAVVTLIEDGKNNSLPVESPPHKCRGSACRPGNSYNSLYSTCLELFKFTIGMGDLEFTENYDFKAVFIILLLAYVILTYILLLNMLIALMGETVNKIAQESKNIWKLQRAITILDTEKSFLKCMRKAFRSGKLLQVGFTPDGKDDFRWCFRVDEVNWTTWNTNVGIINEDPGNCEGVKRTLSFSLRSGRVSGRNWKNFALVPLLRDASTRDRHSTQPEEVQLKHYTGSLKPEDAEVFKDSMAPGEK",Id/Imax_Average,[6]; mean of replicates,0.993
same,Id/Imax,[6]; replicate 1,0.9971
same,Id/Imax,[6]; replicate 2,0.9951
same,Id/Imax,[6]; replicate 3,0.999
same,Id/Imax,[6]; replicate 4,0.9588
same,Id/Imax,[6]; replicate 5,0.9972
same,Id/Imax,[6]; replicate 6,0.9943
same,Id/Imax,[6]; replicate 7,0.9968
same,Id/Imax,[6]; replicate 8,0.9956
same,Id/Imax,[6]; replicate 9,0.9982
same,Id/Imax,[6]; replicate 10,0.9979
